The values below come from ChEMBL document CHEMBL1201862, “PubChem BioAssay data set” (2004).

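Values below derive from 48-hour exposures of cells grown in 96-well plates, with endpoints linearly interpolated between the two concentrations bracketing the appropriate inhibition level. The concentration for 50% growth inhibition is given as GI50.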 Calls of active or inactive are those of the source. Rule as the data show it: active = GI50 up to about 1.1 µM and inactive = higher.

Some test systems named below: DLD-1; DMS-273; KM-20L2; LXFL 529; RXF 631; SNB-78; XF498; M19-MEL; HOP-18.
Assay in all cases: DTP human tumour cell line panel, 48 h

As a reminder, the GI50 is the concentration at which growth is held to half of that of the control. With `C/C(CC(=O)Nc1cccc([N+](=O)[O-])c1)=N\NC(=O)CC#N`, the GI50 in the experiment on DLD-1, in the experiment with DMS-273, in the experiment with KM-20L2, in the experiment on LXFL 529, in the experiment with RXF 631 and with SNB-78 was > 100 µM (inactive) throughout. In the experiment on XF498, the GI50 is > 100 µM (inactive).

With `O=C1CCCCCCCCCCC1CN1CCCCC1` (centres undefined), the GI50 in the experiment on DLD-1 is 54.8 µM (inactive); in the experiment on DMS-273, > 100 µM (inactive); in the experiment with KM-20L2, 31.3 µM (inactive); with LXFL 529 it was > 100 µM (inactive); with M19-MEL, > 100 µM (inactive); with SNB-78, > 100 µM (inactive). In addition, the GI50 in the experiment on XF498 is 89.5 µM (inactive).

Consider `COC1(OC)CC2C(=O)N(Cc3ccccc3)C1C(S(=O)(=O)c1ccccc1)C2C(C)S(=O)(=O)c1ccccc1` (centres undefined), for which the GI50 in the experiment with DLD-1, in the experiment with DMS-273, in the experiment on HOP-18, with KM-20L2, with LXFL 529 and in the experiment with M19-MEL was > 100 µM (inactive) throughout. Besides, the GI50 in the experiment on SNB-78 and with XF498 was > 100 µM (inactive) each time.

Regarding `CC(C)NC(=O)OCc1c2c(n(C)c1COC(=O)NC(C)C)-c1ccccc1CC2`, the GI50 is 11.9 µM (inactive) with DLD-1; 13.9 µM (inactive) in the experiment on DMS-273; 2.28 µM (inactive) with HOP-18; 14 µM (inactive) with KM-20L2; 9.89 µM (inactive) with M19-MEL; 11.4 µM (inactive) in the experiment on SNB-78. For the same compound, in the experiment with XF498, the GI50 is 13.1 µM (inactive).

With `COc1ccc(-c2nc(Sc3c([N+](=O)[O-])ncn3C)n[nH]2)cc1`, the GI50 with DLD-1 is 2.49 µM (inactive); in the experiment on DMS-273 it was 2.18 µM (inactive); in the experiment on HOP-18, 0.296 µM (active); in the experiment on LXFL 529, 3.12 µM (inactive); in the experiment on M19-MEL, 4.9 µM (inactive); with RXF 631, 3.3 µM (inactive). Further, the GI50 with SNB-78 is 4.22 µM (inactive); in the experiment on XF498 it was 2.98 µM (inactive).

On to `CN(c1ccccc1)c1nc(=[N+]2CCCC2)ss1.[O-][Cl+3]([O-])([O-])[O-]`, for which the GI50 in the experiment with DMS-273 was 6.56 µM (inactive); in the experiment with HOP-18, > 100 µM (inactive); in the experiment on KM-20L2 it was > 100 µM (inactive); in the experiment on LXFL 529, > 100 µM (inactive); in the experiment on RXF 631, 20.6 µM (inactive); with SNB-78, > 100 µM (inactive).

For the compound `Cc1ccccc1NC(=O)C1C(=O)N(c2ccccc2C)C(=O)/C1=N\NC(N)=S` (centres undefined), the GI50 with DLD-1, with DMS-273, in the experiment with KM-20L2, in the experiment on LXFL 529, in the experiment on RXF 631 and in the experiment on XF498 was > 100 µM (inactive) in each case.

In the case of `C/C(=N/Nc1ccc([N+](=O)[O-])cc1[N+](=O)[O-])C(CC(C(=O)NCc1ccccc1)/C(C)=N\Nc1ccc([N+](=O)[O-])cc1[N+](=O)[O-])C(=O)NCc1ccccc1` (centres undefined), the GI50 in the experiment with DLD-1 was 12.1 µM (inactive); in the experiment on DMS-273, 8.02 µM (inactive); with HOP-18, 2.69 µM (inactive); in the experiment with KM-20L2, 14.2 µM (inactive); in the experiment on LXFL 529, 10.9 µM (inactive); with M19-MEL, 11.5 µM (inactive). For the same compound, the values for the GI50 in the experiment on RXF 631 and with SNB-78 were 4.29 µM (inactive) and 9.16 µM (inactive), respectively.

With `O=C(Cn1ccnc1[N+](=O)[O-])c1ccc(F)cc1`, the GI50 in the experiment on DMS-273, in the experiment with HOP-18, in the experiment on KM-20L2, in the experiment on LXFL 529, in the experiment with M19-MEL and in the experiment on XF498 was > 100 µM (inactive) throughout.

Turning to `CC(=O)c1c2c(cc3c1CC1(C3)Cc3cc4c(c(C(=O)O)c3C1)CCC4)CCC2` (centres undefined), the GI50 in the experiment with DLD-1 was 37.1 µM (inactive); with DMS-273, 35.6 µM (inactive); in the experiment on HOP-18, 79.8 µM (inactive); in the experiment on LXFL 529, 40.7 µM (inactive); in the experiment with M19-MEL it was 37 µM (inactive); in the experiment on SNB-78, 55.6 µM (inactive). Besides, the GI50 in the experiment with XF498 was 57.1 µM (inactive).

On to `Cc1cc(O)c(C(=O)O)c2c1C(=O)c1c(O)c(OCC(O)C(O)C(O)C(O)CO)c(O)c(O)c1C2=O.NCCNCCO` (centres undefined), for which the GI50 with DLD-1, in the experiment on HOP-18, with KM-20L2, in the experiment on LXFL 529, in the experiment on M19-MEL and with SNB-78 was > 100 µM (inactive) each time. Besides, the GI50 in the experiment with XF498 was > 100 µM (inactive).

In the case of `COC(=O)C1(c2ccc(OC)cc2)NC(c2ccccc2)C2C(=O)N(c3ccc(OC)cc3)C(=O)C21` (centres undefined), the GI50 was > 100 µM (inactive) in the experiment on DLD-1; > 100 µM (inactive) with DMS-273; < 0.01 µM (active) in the experiment on HOP-18; > 100 µM (inactive) in the experiment on KM-20L2; > 100 µM (inactive) with LXFL 529; > 100 µM (inactive) in the experiment with RXF 631. For the same compound, the GI50 in the experiment with SNB-78 and in the experiment on XF498 was > 100 µM (inactive) each time.

Regarding `CN(C)[C@@H]1C(O)=C(C(=O)NCN2CCN(C(=N)NC(=N)N)CC2)C(=O)[C@@]2(O)C(O)=C3C(=O)c4c(O)cccc4[C@@](C)(O)[C@H]3C[C@@H]12`, the 50% growth inhibitory concentration (GI50) is 0.0466 µM (active) in the experiment on DLD-1; 0.252 µM (active) with DMS-273; 0.299 µM (active) in the experiment on KM-20L2; 0.0857 µM (active) in the experiment on LXFL 529; 0.31 µM (active) in the experiment on M19-MEL; 0.166 µM (active) with RXF 631. Moreover, the results for the GI50 in the experiment with SNB-78 and in the experiment on XF498 were 0.0698 µM (active) and 0.091 µM (active), respectively.

Take `N#CC1=C(c2ccccc2)NNC(c2ccc(Cl)cc2)CC1=O` (centres undefined): the GI50 was 32.4 µM (inactive) in the experiment on DLD-1; > 100 µM (inactive) in the experiment on HOP-18; 24 µM (inactive) in the experiment on KM-20L2; 28.7 µM (inactive) in the experiment with LXFL 529; > 10 µM (inactive) in the experiment on RXF 631; > 100 µM (inactive) with SNB-78. The GI50 with XF498 was 26.2 µM (inactive).

Consider `CC(Oc1ccc(OCC2CCCCC2)cc1)C(=O)NCc1ccco1` (centres undefined), for which the GI50 in the experiment with DLD-1 was 34.9 µM (inactive); with DMS-273 it was 25.5 µM (inactive); in the experiment on HOP-18, 89.7 µM (inactive); in the experiment with LXFL 529, 35.6 µM (inactive); with M19-MEL it was 40.7 µM (inactive); in the experiment with SNB-78, 58.6 µM (inactive). The GI50 in the experiment on XF498 was 17.7 µM (inactive).

For the compound `C/C(=N\O)C(CN(C)C)C(c1ccccc1)c1c(O)c2ccccc2oc1=O` (centres undefined), the GI50 in the experiment with DLD-1, with DMS-273, with KM-20L2, with LXFL 529, in the experiment on M19-MEL and in the experiment with SNB-78 was > 100 µM (inactive) each time. Moreover, the GI50 in the experiment on XF498 was > 100 µM (inactive).

As for `Cc1cc(C)nc(NS(=O)(=O)c2ccc(NC(=O)COC(=O)c3cccc4c(=O)c5ccccc5[nH]c34)cc2)n1`, the GI50 with DLD-1 is 45.7 µM (inactive); in the experiment on DMS-273, 41.2 µM (inactive); in the experiment with KM-20L2, 38.6 µM (inactive); with LXFL 529, 39.8 µM (inactive); in the experiment on M19-MEL, 20.4 µM (inactive); in the experiment with SNB-78, 82.2 µM (inactive). The GI50 in the experiment with XF498 was 33.3 µM (inactive).

On to `N#C/N=C(/N)NCc1ccccc1`, for which the GI50 in the experiment on DLD-1, in the experiment on DMS-273, in the experiment with KM-20L2, in the experiment on LXFL 529 and with M19-MEL was > 100 µM (inactive) in each case.

For `CCOC(=O)[C@H]1Nc2ccc(C)cc2C2c3ccccc3CC21` (some centres undefined), the GI50 in the experiment with DLD-1, with DMS-273, with HOP-18, with KM-20L2, with LXFL 529 and in the experiment with M19-MEL was > 100 µM (inactive) in each case. In the experiment with SNB-78, the GI50 is > 100 µM (inactive).

For the compound `OC12CCC3(O)c4ccccc4C3C1c1ccccc12` (centres undefined), the GI50 in the experiment with DMS-273, with HOP-18, in the experiment on KM-20L2, with LXFL 529, with M19-MEL and in the experiment on SNB-78 was > 100 µM (inactive) in each case. Besides, in the experiment on XF498, the GI50 was > 100 µM (inactive).

Turning to `N#COc1ccc(Oc2ccc(OC#N)cc2)cc1`, the GI50 with DLD-1 was 63 µM (inactive); with HOP-18, > 100 µM (inactive); with KM-20L2, > 100 µM (inactive); in the experiment on LXFL 529, > 100 µM (inactive); in the experiment on M19-MEL, > 100 µM (inactive); in the experiment on RXF 631, 17.1 µM (inactive). Moreover, the GI50 with SNB-78 and in the experiment with XF498 was > 100 µM (inactive) in each case.

Take `CC(=O)OC1CC[C@@]2(C)C(CC(OC3OC(CO)C(O)C(O)C3O)[C@]3(C)C2CCC24CC23CC[C@H]4C(C)CC(O)[C@@H](O)C(C)(C)O)C1(C)C` (some centres undefined): the GI50 is 15.5 µM (inactive) in the experiment on DLD-1; 18.2 µM (inactive) in the experiment with DMS-273; 14 µM (inactive) with HOP-18; 19.9 µM (inactive) with KM-20L2; 8.99 µM (inactive) in the experiment with LXFL 529; 8.07 µM (inactive) in the experiment with M19-MEL. Further, the GI50 in the experiment on RXF 631 was 29 µM (inactive); with SNB-78, > 5 µM (inactive).

With `O=S1(=O)C[C@@H](O)[C@H](O)CS1`, the GI50 in the experiment with DLD-1, in the experiment on DMS-273, in the experiment on HOP-18, in the experiment with KM-20L2, in the experiment with LXFL 529 and with M19-MEL was > 100 µM (inactive) each time. The GI50 with SNB-78 and with XF498 was > 100 µM (inactive) in each case.

On to `COc1cccc(OC)c1C(=O)OCc1ccccc1`, for which the GI50 with DLD-1, in the experiment on KM-20L2, in the experiment on LXFL 529, with M19-MEL and in the experiment on XF498 was > 100 µM (inactive) throughout.

For the compound `Cc1c2cc[n+](C)cc2c(C)c2c1[nH]c1ccccc12`, the GI50 was 1.68 µM (inactive) in the experiment with DLD-1; 1.5 µM (inactive) in the experiment with DMS-273; 2.82 µM (inactive) with HOP-18; 0.984 µM (active) with M19-MEL; 0.548 µM (active) with XF498.
